Data taken from US9931380B2, “Medicament for treating olfaction disorder” (priority 2015, dated 2018).

Columns and labels:
[1] = Blood sugar level of DM (STZ) mice given the insulin preparation; assay type: in vivo, C57BL/6 mice; details: intraperitoneally once a day, 2 to 3 U/kg of insulin detemir
Description: (§1) To C57BL/6 mice (normal mice; Japan SLC, Inc) at the age of 10 weeks, 120 mg/kg of streptozotocin (STZ; Sigma-Aldrich) was administered intraperitoneally for three days in a row, on Days 0 (Initial administration), 1, and 2. On Day 7, those with a fasting blood glucose (fasting blood sugar level: FBS) of 250 mg/dl or more were defined as DM mice in which pancreatic β cells were specifically impaired. Moreover, subsequent operations used those with a blood sugar of more than 250 mg/dl at any time after about one week since the administration of STZ.
As the insulin preparation, “Levemir FlexPen (Registered Trademark)” was used (referred to as Levemir). Levemir was administered intraperitoneally into DM mice once a day, with 2 to 3 U/kg of the insulin detemir each. […] The amount of insulin given here was therefore regarded as the amount that can properly resolve the shortages of insulin in the DM mice. The olfactory epithelium tissues of groups of DM mice (group a, group b, and group c) were observed 14 days after the administration of methimazole (Refer to FIGS. 9A and 9B): Each group differs on the time when insulin was additionally given. […] Then, with the use of the above-described method, the number of olfactory nerve cells (OSNs) of olfactory epithelium, the thickness of olfactory epithelium, and the number of OMP positive cells were counted in each group. […]

olfactory epithelium = test: Regeneration of olfactory epithelium in DM model mice with methimazole-induced olfactory disturbance after insulin administration; assay type: in vivo, C57BL/6 mice; details: for number of olfactory nerve cells, DM mice vs normal mice / thickness of olfactory epithelium, DM mice vs normal mice / number of mature olfactory nerve cells (number of OMP positive cells), DM mice vs normal mice: read 14 days after methimazole
Description: as §1
To each of positive control mice, which were created by giving only physiological saline to normal mice, and DM mice, 80 mg/kg of methimazole (Siyma-Aldrich) was administered intraperitoneally in order to create model mice with olfactory disturbance. The model mice with olfactory disturbance were created as metabolites of methimazole selectively damaged olfactory epithelium. The mechanism of olfactory disturbance is considered to be the activation of caspase that induces apoptosis in olfactory cells. When normal mice were given methimazole, the damaged olfactory epithelium could recover to the almost normal level about 28 days after the administration. Moreover, normal mice that were given physiological saline instead of methimazole were used as control. Their weight and blood sugar levels of tail veins were measured 28 days after the methimazole injection.
The hearts of mice were perfused with 4% paraformaldehyde in 0.1M phosphate buffer. The mice were sacrificed and fixed 24 hours later with the same fixative. Nostril tissues containing OE were decalcified with a 10% EDTA solution (pH 7.0), and were embedded in paraffin. Coronal sections (with thickness of 4 μm) were cut off and put on silane-coated slides. The deparaffinized sections were autoclaved for 10 minutes in Target Retrieval Solution (S1700; Dako) for antigen retrieval. Immunohistochemistry was conducted with one of the following antibodies: Anti-insulin receptors, anti-phosphorylated insulin receptors, anti-olfactory marker proteins (OMP, goat polyclonal, 1:4000 dilution; Wako Chemicals), anti-activated caspase-3 (rabbit polyclonal, 1:5000; Cell Signaling Technology), anti-Ki-67 (mouse monoclonal, 1:500; BD Biosciences), and anti-c-fos antibodies (Rabbit IgG, 1:1000; Santa Cruz Biotechnology).
In order to suppress the variation of data values that could be caused by anatomical changes (e.g. aerated nasal turbinate) between mice and in the mice, the OE analysis was conducted in such a way as to be limited to OE (olfactory epithelium) of the nasal septum and nasal turbinate's top on the right and left sides in the nasal cavity.
Sections were cut at intervals of 500 μm. The olfactory epithelium included the following two cell lines: Olfactory nerve cells (OSNs) and basal stem cells. Rectangular cells on lamina propria in OE were defined as basal cells. The rest of the cells were defined as OSNs. The thickness, or distance from the lamina propria to the surface, was measured with software known as ImageJ. The number of OSNs labeled with anti-OMP, anti-activated caspase-3, and anti-Ki-67 antibody was quantitatively analyzed by uniquely immunostaining for each antigen and using sections counterstained with hematoxylin. As for connective tissues under the lamina propria, the immunostaining of cells with an intermediate background intensity more than double the standard deviation was regarded as being positive. The number of OSNs and the number of immunostained cells (OMP-positive cells, Ki-67-positive cells, and caspase-3 positive cells) were measured along the total length of the nasal septum in microscopic observation images (of each of normal groups and STZ groups) for both the left and right sides. […]

[2] = group a: 3 U/kg i.p. day 1 to 14
[3] = group b as printed: 3 U/kg i.p. day 1 to 7
[4] = group b: 3 U/kg i.p. only day 1 to 7, 14 days after onset of disturbance
[5] = groups a (day 1 to 14) and c (day 7 to 14), 3 U/kg i.p., 14 days after onset of disturbance

insulin detemir [Levemir]
blood sugar levels [1]: around 130 mg/dl
number of olfactory nerve cells, DM mice vs normal mice (olfactory epithelium; [2]): no significant difference
thickness of olfactory epithelium, DM mice vs normal mice (olfactory epithelium; [2]): no significant difference
number of mature olfactory nerve cells (number of OMP positive cells), DM mice vs normal mice (olfactory epithelium; group a: 3 U/kg i.p. every day, day 1 to 14 after methimazole): broadly comparable to normal mice
number of olfactory nerve cells, DM mice vs normal mice (olfactory epithelium; [3]): no significant difference
thickness of olfactory epithelium, DM mice vs normal mice (olfactory epithelium; [3]): no significant difference
number of mature olfactory nerve cells (number of OMP positive cells), DM mice vs normal mice (olfactory epithelium; group b as printed: 3 U/kg i.p. only day 1 to 7 after methimazole): broadly comparable to normal mice
number of OMP positive cells, compared with groups a and c (olfactory epithelium; [4]): significant decreases
number of OSNs, compared with groups a and c (olfactory epithelium; [4]): significant decreases
thickness of olfactory epithelium, compared with groups a and c (olfactory epithelium; [4]): significant decreases
number of OMP positive cells (olfactory epithelium; [5]): no significant differences
number of OSNs (olfactory epithelium; [5]): no significant differences
thickness of olfactory epithelium (olfactory epithelium; [5]): no significant differences
